{
  "source": "patent US12202845",
  "details": "from CCn1c(-c2cccnc2[C@H](C)OC)c(CC(C)(C)CO)c2cc(C3=CCCN(CC(NC(=O)OC(C)(C)C)C(=O)N4CCC[C@@H](C(=O)O)N4)C3)ccc21; ester bond; 18-membered ring; EDCI.HCl/HOBt/DIPEA; DCM; 7.1 mM; 30.0 °C; 16.0 h",
  "data": [
    {"molecule": "CCn1c(-c2cccnc2[C@H](C)OC)c2c3cc(ccc31)C1=CCCN(C1)CC(NC(=O)OC(C)(C)C)C(=O)N1CCC[C@H](N1)C(=O)OCC(C)(C)C2", "note": "(stereo partly shown)", "values": [
      {"measurement": "ring closure, isolated yield", "value": 40, "unit": "%"}
    ]}
  ]
}
